Source: ChEMBL document CHEMBL1155634, “New butenolides from two marine streptomycetes” (J Nat Prod, 2000)
Calls of active or inactive are those of the source. The calls are words filed in the database; no cut-off is given here.

Tests used:
Format in all cases: functional, organism-based
Escherichia coli = assay: Antibacterial activity against Escherichia coli
[1] = test system: Streptomyces viridochromogenes; assay: Antibacterial activity against Streptomyces viridochromogenes Tu57 assessed as inhibition of spore formation
[2] = test system: Streptomyces viridochromogenes; assay: Antibacterial activity against Streptomyces viridochromogenes Tu57
Candida albicans = assay: Antifungal activity against Candida albicans
Staphylococcus aureus = assay: Antibacterial activity against Staphylococcus aureus
Rhizomucor miehei = assay: Antifungal activity against Mucor miehei Tu284

SMILES | Activity (Escherichia coli) | Activity [1] | Activity [2] | Activity (Candida albicans) | Activity (Staphylococcus aureus) | Activity (Rhizomucor miehei)
CC(=O)C(C)CCCCC[C@H]1C=CC(=O)O1 (some centres undefined) | inactive | inactive | inactive | inactive | inactive | inactive
CCC(C)(O)CCCCC[C@H]1C=CC(=O)O1 (some centres undefined) |  | inactive |  |  |  | 
CC(O)C(C)CCCCC[C@H]1C=CC(=O)O1 (stereo in doubt; 2) |  | inactive |  |  |  | 
CC(O)C(C)CCCCC[C@H]1C=CC(=O)O1 (stereo in doubt; 3) |  | inactive |  |  |  | 
